This is an account of results in US20080200405A1, “Drug Resistance Reversal In Neoplastic Disease” (priority 2007, published 2008).

For the experiment, the system named is Human whole blood clot formation. The conditions noted are these: compound 4 at 1 ug and 10 ug.

SMILES strings stand for the structures.

As to `CC1(C)CC(OC(=O)C2CC2)CC(C)(C)N1O.Cl` [OT-551, 1-hydroxy-4-cyclopropanecarbonyloxy-2,2,6,6-tetramethylpiperidine hydrochloride], the “effect on clot formation with Bevacizumab/Ranibizumab” value is listed as “completely abrogated the clot formation”.
